Patent US9920039B2, “1,2,4-Oxadiazol compounds active against gram-positive pathogens” (UNIVERSITÀ DEGLI STUDI DI MILANO—BICOCCA, priority 2013, dated 2018)
In brackets after ≈: the same amount, converted by molar mass. Read-outs that look alike come from different tables or passages of the source.

Tests used:
[1] = tested on: Linezolid-resistant S. epidermidis Strains 1-10; assay: MIC by broth microdilution (Table 5); format: cell-based, Staphylococcus epidermidis
Text: (§1) The in vitro antibacterial activity of the new agents was studied by determining their minimum inhibitory concentrations (MICs) by means of the broth microdilution method according to the Clinical and Laboratory Standards Institute (CLSI) guidelines.[16] Briefly, serial 2-fold dilutions of each compound were made using the Cation adjusted Mueller-Hinton broth (CAMHB) in microtitre plates with 96 wells. Dimethyl sulfoxide (DMSO) was used as solvent for all the synthesized compounds. An equal volume of the bacterial inoculum (1×10^6 CFU/mL) was added to each well on the microtitre plate containing 0.05 mL of the serial antibiotic dilutions. The microtitre plate was then incubated at 37° C. for 18-24 h after which each well was analysed for the presence of bacterial growth. The MIC was defined as the lowest concentration of antimicrobial agent able to cause inhibition of bacterial growth as shown by the lack of turbidity of the culture medium. […] Final DMSO concentrations were also taken into account in all the biological assays.

[2] = tested on: Staphylococcus aureus ATCC 29213; assay: MIC by broth microdilution (CLSI); format: cell-based
Text: (§2) Several well characterized for their antibiotic-susceptibility phenotype Staphylococcus aureus isolates were used for the determination of the in vitro antibacterial activity of the studied compounds. In particular, S. aureus ATCC 29213 reference standard strain and S. aureus M923 (collection strain) were used as MSSA strains. Among MRSA, S. aureus MU50 (ATCC 700699) reference standard strain and two collection strains (433 and F511) were used for susceptibility assays.
as §1
(§3) The antimicrobial activities, summarized in Table 2, were determined by the “gold standard” method of broth microdilution, as recommended by the Clinical Laboratory Standards Institute (CLSI) (See the Experimental Section). […] In detail, the bacterial strains were tested: Staphylococcus aureus ATCC 29213, a clinical strain of methicillin-susceptible S. aureus (M923), S. aureus MU50 (methicillin-resistant—MRSA), and two methicillin-resistant clinical strains, 433 and F511.
(§4) The antimicrobial activities, summarized in Table 3, were determined by the “gold standard” method of broth microdilution, as recommended by the Clinical Laboratory Standards Institute (CLSI) (See the Experimental Section). The minimum inhibitory concentration (MIC) values were expressed in μg/mL. […] In detail, the tested bacterial strains were: Staphylococcus aureus ATCC 29213, a clinical strain of methicillin-susceptible S. aureus (M923), S. aureus MU50 (methicillin-resistant—MRSA) strain, and two methicillin-resistant clinical strains, 433 and F511.

[3] = tested on: 45 Linezolid-susceptible MRSA; assay: MIC summary on strain panel (Table 5); format: cell-based, Staphylococcus aureus
Text: In particular, eleven linezolid-resistant coagulase-negative staphylococci (CoNS) (ten S. epidermidis and one S. hominis) were investigated. The eleven linezolid-resistant strains were isolated in several hospital settings between 2010 and 2011 from positive blood cultures. For the […], recently isolated from patients with cystic fibrosis, showing different profiles of multi-resistance to different classes of antimicrobials, was used (Table 4 and 5).
as §1

[4] = tested on: mitochondrial protein synthesis (OXPHOS complexes) in HepG2 cells; assay: Oxidative phosphorylation (OXPHOS) assay
Text: This assay (Nadaciva S. et al., 2010) is used to monitor the level of mitochondrial protein synthesis of some key proteins in the process of oxidative phosphorylation of eukaryotic cells, comparing it with the level of synthesis of mitochondrial proteins encoded by nuclear DNA. This study allows us to analyze the effects of A4bS on the proteins encoded by mitochondrial DNA (mtDNA).
The data represent the mean±SEM of three separate experiments performed in triplicate. Statistical significance is obtained by the Student's test compared to the […].

[5] = tested on: 11 Linezolid-resistant CoNS; assay: MIC summary on strain panel (Table 5); format: cell-based, Staphylococcus epidermidis, Staphylococcus hominis
Text: as §1

[6] = tested on: Linezolid-resistant S. hominis Strain 11; assay: MIC by broth microdilution (Table 5); format: cell-based, Staphylococcus hominis; conditions: S. hominis Strain 11, linezolid-resistant
Text: as §1

ATCC E. faecalis 29212 = assay: MIC by broth microdilution (Table 5); format: cell-based, Enterococcus faecalis
Method: Dimethyl sulfoxide (DMSO) was used as solvent for all the synthesized compounds. An equal volume of the bacterial inoculum (1×10^6 CFU/mL) was added to each well on the microtitre plate containing 0.05 mL of the serial antibiotic dilutions. The microtitre plate was then incubated at 37° C. for 18-24 h after which each well was analysed for the presence of bacterial growth. The MIC was defined as the lowest concentration of antimicrobial agent able to cause inhibition of bacterial growth as shown by the lack of turbidity of the culture medium. […] Final DMSO concentrations were also taken into account in all the biological assays.

[7] = tested on: S. aureus MU50 (ATCC 700699), methicillin-resistant (MRSA); assay: MIC by broth microdilution (CLSI); format: cell-based, Staphylococcus aureus
Text: as §2, §1, §3, §4

[8] = tested on: methicillin-susceptible S. aureus (M923); assay: MIC by broth microdilution (CLSI); format: cell-based, Staphylococcus aureus; conditions: Staphylococcus aureus
Text: as §2, §1, §3, §4

MRSA clinical strain 433 = assay: MIC by broth microdilution (CLSI); format: cell-based, Staphylococcus aureus; conditions: MRSA 433
Text: as §2, §1, §3, §4

[9] = tested on: MRSA clinical strain F511; assay: MIC by broth microdilution (CLSI); format: cell-based, Staphylococcus aureus; conditions: Staphylococcus aureus
Text: as §2, §1, §3, §4

[10] = tested on: 12 MRSE all LZD sensitive; assay: MIC on strain panel (Table 4); format: cell-based, Staphylococcus epidermidis
Text: as §1

[11] = tested on: 6 ATCC (4MSSA, 2 MRSA)plus45 MRSA all LZD sensitive; assay: MIC on strain panel (Table 4); format: cell-based, Staphylococcus aureus; conditions: 6 ATCC plus 45 MRSA
Text: as §1

[12] = S. epidermidis Strain 1, linezolid-resistant
[13] = S. epidermidis Strain 2, linezolid-resistant
[14] = S. epidermidis Strain 3, linezolid-resistant
[15] = S. epidermidis Strain 4, linezolid-resistant
[16] = S. epidermidis Strain 5, linezolid-resistant
[17] = S. epidermidis Strain 6, linezolid-resistant
[18] = S. epidermidis Strain 7, linezolid-resistant
[19] = S. epidermidis Strain 8, linezolid-resistant
[20] = S. epidermidis Strain 9, linezolid-resistant
[21] = S. epidermidis Strain 10, linezolid-resistant
[22] = ATCC S. aureus 29213, resolved enantiomers, Table 5, read-out: MIC
[23] = Staphylococcus aureus, racemic mixture, Table 2, read-out: MIC

Row | SMILES | MIC [1, 12] | MIC [1, 13] | MIC [1, 14] | MIC [1, 15] | MIC [1, 16] | MIC [1, 17] | MIC [1, 18] | MIC [1, 19] | MIC [1, 20] | MIC [1, 21] | MIC [2, 22] | MIC50 [3] | MIC50 ([5]; 11 Linezolid-resistant CoNS) | MIC90 ([5]; 11 Linezolid-resistant CoNS) | MIC [6] | MIC (ATCC E. faecalis 29212) | further results
1 | CC(=S)NC[C@H]1CN(c2ccc(-c3nc(C)no3)c(F)c2)C(=O)O1 [Compound A4bS] | 8 µg/mL (≈ 22.8 µM) | 8 µg/mL (≈ 22.8 µM) | 4 µg/mL (≈ 11.4 µM) | 4 µg/mL (≈ 11.4 µM) | 2 µg/mL (≈ 5.71 µM) | 4 µg/mL (≈ 11.4 µM) | 8 µg/mL (≈ 22.8 µM) | 2 µg/mL (≈ 5.71 µM) | 1 µg/mL (≈ 2.85 µM) | 4 µg/mL (≈ 11.4 µM) | 4 µg/mL (≈ 11.4 µM) | 0.5 µg/mL (≈ 1.43 µM) | 4 µg/mL (≈ 11.4 µM) | 8 µg/mL (≈ 22.8 µM) | 4 µg/mL (≈ 11.4 µM) | 2 µg/mL (≈ 5.71 µM) | effect on proteins synthesized by mtDNA (in words) [4]: reduction of the synthesis of proteins of complex I and IV; effect on linezolid resistance (in words) ([5]; linezolid-resistant Staphylococcus spp. strains): completely reversed resistance to linezolid into susceptibility
2 | CC(=S)NC[C@@H]1CN(c2ccc(-c3nc(C)no3)cc2)C(=O)O1 [Compound A4aR] | > 128 µg/mL | > 128 µg/mL | > 128 µg/mL | > 128 µg/mL | > 128 µg/mL | > 128 µg/mL | > 128 µg/mL | > 128 µg/mL | > 128 µg/mL | > 128 µg/mL | 128 µg/mL (≈ 385 µM) | > 128 µg/mL | > 128 µg/mL | > 128 µg/mL | > 128 µg/mL | > 128 µg/mL | MIC-range ([5]; 11 Linezolid-resistant CoNS): > 128 µg/mL
3 | CC(=S)NC[C@H]1CN(c2ccc(-c3nc(C)no3)cc2)C(=O)O1 [Compound A4aS] | 8 µg/mL (≈ 24.1 µM) | 32 µg/mL (≈ 96.3 µM) | 4 µg/mL (≈ 12 µM) | 32 µg/mL (≈ 96.3 µM) | 4 µg/mL (≈ 12 µM) | 4 µg/mL (≈ 12 µM) | 32 µg/mL (≈ 96.3 µM) | 32 µg/mL (≈ 96.3 µM) | 1 µg/mL (≈ 3.01 µM) | 8 µg/mL (≈ 24.1 µM) | 8 µg/mL (≈ 24.1 µM) | 2 µg/mL (≈ 6.02 µM) | 8 µg/mL (≈ 24.1 µM) | 32 µg/mL (≈ 96.3 µM) | 8 µg/mL (≈ 24.1 µM) | 4 µg/mL (≈ 12 µM) | –
4 | CC(=S)NC[C@@H]1CN(c2ccc(-c3nc(C)no3)c(F)c2)C(=O)O1 [Compound A4bR] | 128 µg/mL (≈ 365 µM) | > 128 µg/mL | > 128 µg/mL | 128 µg/mL (≈ 365 µM) | 128 µg/mL (≈ 365 µM) | 64 µg/mL (≈ 183 µM) | > 128 µg/mL | 128 µg/mL (≈ 365 µM) | > 128 µg/mL | 128 µg/mL (≈ 365 µM) | 64 µg/mL (≈ 183 µM) | 128 µg/mL (≈ 365 µM) | 128 µg/mL (≈ 365 µM) | 128 µg/mL (≈ 365 µM) | 128 µg/mL (≈ 365 µM) | 32 µg/mL (≈ 91.3 µM) | –
5 | CC(=O)NC[C@H]1CN(c2ccc(N3CCOCC3)c(F)c2)C(=O)O1 [Linezolid, reference compound] | – | – | – | – | – | – | – | – | – | – | – | – | – | – | – | – | MIC [7, 23]: 0.8 µg/mL (≈ 2.37 µM); MIC ([7]; racemic form, Table 3): 0.8 µg/mL (≈ 2.37 µM); MIC ([8]; MSSA, racemic mixture, Table 2): 3.13 µg/mL (≈ 9.28 µM); MIC ([8]; MSSA M923, racemic form, Table 3, read-out: MIC): 3.12 µg/mL (≈ 9.26 µM); MIC (MRSA clinical strain 433; racemic form, Table 3): 1.6 µg/mL (≈ 4.74 µM); MIC (MRSA clinical strain 433; [23]): 1.6 µg/mL (≈ 4.74 µM); MIC ([9]; MRSA, racemic mixture, Table 2): 3.13 µg/mL (≈ 9.28 µM); MIC ([9]; racemic form, Table 3, read-out: MIC): 3.12 µg/mL (≈ 9.26 µM); MIC ([2]; ATCC 29213, racemic form, Table 3): ≤0.4 µg/mL; MIC ([2]; Staphylococcus aureus, ATCC29213, ATCC 29213, racemic mixture, Table 2, read-out: MIC): ≤ 0.4 µg/mL; effect on proteins synthesized by mtDNA (in words) ([4]; HepG2, linezolid 100 μg/mL, A4bS 10-100 μg/mL, vs non-treated cells, FIG. 6): significant decrease; MIC range [10]: 32 to 64 µg/mL; MIC50 ([10]; Staphylococcus epidermidis, read-out: MIC50): 32 µg/mL (≈ 94.9 µM); MIC90 ([10]; Staphylococcus epidermidis, read-out: MIC90): 64 µg/mL (≈ 190 µM); MIC-range ([11]; tested range ≤0.06 - >128): 0.25 to 16 µg/mL; MIC50 ([11]; Staphylococcus aureus, read-out: MIC50): 2 µg/mL; MIC90 ([11]; Staphylococcus aureus, read-out: MIC90): 4 µg/mL
